Experimental data taken from patent publication US12157730B2, “Heteroaryl derivative, method for producing same, and pharmaceutical composition comprising same as effective component” (VORONOI INC., priority 2019, dated 2024).

Columns and labels:
[1] = molecular target: T1, Ba/F3 cell EGFR Exon20 ins FQEA (Homo sapiens, UniProt P00533, INS763FQEA); assay: Ba/F3 cell proliferation suppression, EGFR Exon20 ins FQEA; assay type: cell-based; details: 72 hours after treatment, CellTiter-Glo
T1 construct: expressed in transfected cells; host or cells: Ba/F3
Protocol: (§1) The following experiment was carried out to evaluate the suppression activity of the compounds according to the present invention against proliferation of Ba/F3 and lung cancer cells which express EGFR mutations.
(§2) Of the cancer cell lines expressing the EGFR gene, A549 was cultured after adding 10% FBS (HyClone) to DMEM (Invitrogen), and RPMI-1640 (Invitrogen) with 10% FBS was used for the other cancer cells. For the Ba/F3 cells, RPMI-1640 with 10% FBS and 5 ng/ml IL-3 (R&D Systems) was used. The transduced Ba/F3 cells were cultured by adding 1 ug/ml puromycin (Invitrogen) to the same medium.
(§3) 24 hours before treatment with the compounds, 3000 to 5000 cells were distributed into each well of a white clear bottom 96 well plate (Corning). The compounds were diluted in dimethylsulfoxide (dilution ratio 3:1; 12 concentrations total) and injected 0.5 ul each for a final concentration of 0.3 nM to 50 um. As for measurement of live cells, 72 hours after treatment with the compounds, a CellTiter-Glo luminescent cell-viability reagent (Promega) was used to store the cells at room temperature for 10 minutes, followed by measurement of luminescence using a reader (SynergyNeo, Biotek). Each test was repeated three times.
(§4) The result was calculated as a cell growth ratio (%) compared to a control. The program GraphPad Prism version 5.0 was used to draw the graphs and calculate the GI50 values.

PC9GR = assay: Lung cancer cell proliferation suppression, PC9GR; assay type: cell-based; details: 72 hours after treatment, CellTiter-Glo
Protocol: as §1, §2, §3, §4

[2] = molecular target: T2, Ba/F3 cell EGFR Exon20 ins NPH (Homo sapiens, UniProt P00533, INS773NPH); assay: Ba/F3 cell proliferation suppression, EGFR Exon20 ins NPH; assay type: cell-based; details: for GI50: 72 hours after treatment, CellTiter-Glo; for Ba/F3 (NPH) Activity: GI50 class, Ba/F3 cell line with NPH inserted at Exon20 of EGFR, 72 hours
T2 construct: expressed in transfected cells; host or cells: Ba/F3
Summary of the method: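 72 h compound exposure, 0.3 nM–50 um (12 points, 3:1 dilution in DMSO); viability by CellTiter-Glo luminescence. Ba/F3 medium: RPMI-1640, 10% FBS, 5 ng/ml IL-3, 1 ug/ml puromycin for transduced cells. GI50 vs control, n=3.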

[3] = molecular target: T3, Ba/F3 cell EGFR Exon20 ins ASV (Homo sapiens, UniProt P00533, INS769ASV); assay: Ba/F3 cell proliferation suppression, EGFR Exon20 ins ASV; assay type: cell-based; details: 72 hours after treatment, CellTiter-Glo
T3 construct: expressed in transfected cells; host or cells: Ba/F3
Protocol: as §1, §2, §3, §4

H1975 = assay: Lung cancer cell proliferation suppression, H1975; assay type: cell-based; details: Homo sapiens, NCI-H1975; 72 hours after treatment, CellTiter-Glo
Protocol: as §1, §2, §3, §4

Ba/F3 cell naive = assay: Ba/F3 cell proliferation suppression, naive; assay type: cell-based; details: Mus musculus, BaF3; 72 hours after treatment, CellTiter-Glo
Protocol: as §1, §2, §3, §4

Ba/F3 cell EGFR L858R = molecular target: T4, Ba/F3 cell EGFR L858R (Homo sapiens, UniProt P00533, L858R); assay: Ba/F3 cell proliferation suppression, EGFR L858R; assay type: cell-based; details: 72 hours after treatment, CellTiter-Glo
T4 construct: expressed in transfected cells; host or cells: Ba/F3
Protocol: as §1, §2, §3, §4

[4] = molecular target: T5, Ba/F3 cell EGFR Exon20 ins SVD (Homo sapiens, UniProt P00533, INS770SVD); assay: Ba/F3 cell proliferation suppression, EGFR Exon20 ins SVD; assay type: cell-based; details: 72 hours after treatment, CellTiter-Glo
T5 construct: expressed in transfected cells; host or cells: Ba/F3
Protocol: as §1, §2, §3, §4

[5] = test system: Ba/F3 cell EGFR Del19/T790M; assay: Ba/F3 cell proliferation suppression, EGFR Del19/T790M; assay type: cell-based; details: 72 hours after treatment, CellTiter-Glo
Protocol: as §1, §2, §3, §4

[6] = molecular target: T6, Ba/F3 cell HER2 Exon20 ins YVMA (Homo sapiens, UniProt P04626, INS775YVMA); assay: Ba/F3 cell proliferation suppression, HER2 Exon20 ins YVMA; assay type: cell-based; details: 72 hours after treatment, CellTiter-Glo
T6 construct: expressed in transfected cells; host or cells: Ba/F3
Protocol: as §1, §2, §3, §4

[7] = molecular target: T7, Ba/F3 cell EGFR L858R/T790M (Homo sapiens, UniProt P00533, L858R/T790M); assay: Ba/F3 cell proliferation suppression, EGFR L858R/T790M; assay type: cell-based; details: 72 hours after treatment, CellTiter-Glo
T7 construct: expressed in transfected cells; host or cells: Ba/F3
Protocol: as §1, §2, §3, §4

[8] = test system: scanMAX kinase panel (EGFR mutant, ERBB2, ERBB4); assay: DiscoverX (eurofin) KINOMEscan (scanMAX platform) kinase profiling; assay type: binding; details: for suppression activity against the EGFR mutant and ERBB2 and ERBB4: KINOMEscan scanMAX kinase profiling
Description: It was confirmed that the above example compounds had high selectivity against EGFR series genes. Accordingly, these can be useful in the treating of cancers wherein this kinase is expressed. In particular, as they have substantially outstanding lung cancer cell line proliferation suppression, they can be useful in the treatment of lung cancer, breast cancer, and brain cancer.

PC9 = assay: Lung cancer cell proliferation suppression, PC9; assay type: cell-based; details: Homo sapiens, PC-9; 72 hours after treatment, CellTiter-Glo
Protocol: as §1, §2, §3, §4

T6 sequence (P04626 with tags, fused parts or gaps INS775YVMA): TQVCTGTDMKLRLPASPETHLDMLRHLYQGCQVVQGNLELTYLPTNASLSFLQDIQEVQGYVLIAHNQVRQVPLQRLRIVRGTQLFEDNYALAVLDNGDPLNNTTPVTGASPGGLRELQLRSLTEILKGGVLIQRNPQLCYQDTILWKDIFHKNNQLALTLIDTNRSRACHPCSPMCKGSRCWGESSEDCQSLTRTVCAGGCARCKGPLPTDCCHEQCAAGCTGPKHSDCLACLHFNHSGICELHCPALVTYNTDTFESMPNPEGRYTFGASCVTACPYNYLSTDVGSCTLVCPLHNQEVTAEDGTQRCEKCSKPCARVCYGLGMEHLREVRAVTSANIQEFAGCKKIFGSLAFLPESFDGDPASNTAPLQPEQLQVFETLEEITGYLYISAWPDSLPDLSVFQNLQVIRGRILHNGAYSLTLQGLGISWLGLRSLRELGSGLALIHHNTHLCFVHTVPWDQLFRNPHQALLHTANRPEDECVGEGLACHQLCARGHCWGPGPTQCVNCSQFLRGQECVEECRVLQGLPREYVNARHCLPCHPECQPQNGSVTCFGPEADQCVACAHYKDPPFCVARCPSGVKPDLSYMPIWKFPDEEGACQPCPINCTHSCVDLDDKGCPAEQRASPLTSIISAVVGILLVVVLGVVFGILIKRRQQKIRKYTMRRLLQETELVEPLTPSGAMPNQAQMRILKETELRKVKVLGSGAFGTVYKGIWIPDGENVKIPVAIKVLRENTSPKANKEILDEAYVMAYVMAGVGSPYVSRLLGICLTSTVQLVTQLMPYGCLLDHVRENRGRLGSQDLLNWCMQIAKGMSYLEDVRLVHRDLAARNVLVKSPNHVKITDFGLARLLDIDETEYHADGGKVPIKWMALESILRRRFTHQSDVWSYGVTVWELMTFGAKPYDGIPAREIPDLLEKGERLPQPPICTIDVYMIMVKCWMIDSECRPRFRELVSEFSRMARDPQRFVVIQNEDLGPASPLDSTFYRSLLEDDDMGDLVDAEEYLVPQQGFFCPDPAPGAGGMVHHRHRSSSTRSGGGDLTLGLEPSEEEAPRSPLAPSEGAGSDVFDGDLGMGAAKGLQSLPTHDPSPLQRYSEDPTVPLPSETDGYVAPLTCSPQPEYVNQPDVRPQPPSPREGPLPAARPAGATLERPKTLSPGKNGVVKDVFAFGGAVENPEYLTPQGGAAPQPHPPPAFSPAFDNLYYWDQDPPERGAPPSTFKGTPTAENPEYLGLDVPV

Row | GI50 [1] [µM] | GI50 (PC9GR) [nM] | GI50 [2] [µM] | Ba/F3 (NPH) Activity [2] | GI50 [3] [µM] | GI50 (H1975) [nM] | GI50 (Ba/F3 cell naive) [µM] | GI50 (Ba/F3 cell EGFR L858R) [µM] | GI50 [4] [µM] | GI50 [5] [µM] | GI50 [6] [µM] | GI50 [7] [µM] | % inhibition of scanMAX Kinase profiling ([8]; EGFR(E746-A750del)) [%] | % inhibition of scanMAX Kinase profiling ([8]; EGFR(G719C)) [%] | % inhibition of scanMAX Kinase profiling ([8]; EGFR(G719S)) [%] | % inhibition of scanMAX Kinase profiling ([8]; EGFR(L747-E749del, A750P)) [%] | % inhibition of scanMAX Kinase profiling ([8]; EGFR(L747-T751del.Sins)) [%] | % inhibition of scanMAX Kinase profiling ([8]; EGFR(L858R)) [%] | suppression activity against the EGFR mutant and ERBB2 and ERBB4 [8] | GI50 (PC9) [nM] | Structure (SMILES) | also measured
1 | < 0.05 | 4 | < 0.05 | A (GI50 < 50 nM) | < 0.05 | 1 | ≥ 5 | < 0.05 | < 0.05 | < 0.05 | < 0.05 | < 0.05 | 98 | 100 | 100 | 98 | 100 | 100 | high suppression activity | 1 | C=CC(=O)Nc1cc(Nc2cc(N3OCC[C@@H]3c3cc(F)cc(F)c3)ncn2)c(OC)cc1N1CCC(N2CCN(C3CC3)CC2)CC1 [Example 57] | % inhibition of scanMAX Kinase profiling ([8]; EGFR(L858R.T790M)): 96%; % inhibition of scanMAX Kinase profiling ([8]; EGFR(L861q)): 100%; % inhibition of scanMAX Kinase profiling ([8]; EGFR(S752-I759del)): 98%; % inhibition of scanMAX Kinase profiling ([8]; EGFR(T790M)): 100%; % inhibition of scanMAX Kinase profiling ([8]; ERBB2): 100%; % inhibition of scanMAX Kinase profiling ([8]; ERBB4): 100%
2 | < 0.05 | 6 | < 0.05 | A (GI50 < 50 nM) | < 0.05 | 1 | ≥ 5 | < 0.05 | < 0.05 | < 0.05 | < 0.05 | < 0.05 | 95 | 100 | 100 | 100 | 96 | 100 | high suppression activity | 1 | C=CC(=O)Nc1cc(Nc2cc(N3OCC[C@@H]3c3cc(F)cc(F)c3)ncn2)c(OC)cc1N1CCC(N2CCOCC2)CC1 [Example 30, N-(5-((6-((R)-3-(3,5-difluorophenyl)isoxazolidine-2-yl)pyrimidine-4-yl)amino)-4-methoxy-2-(4-morpholinopiperidine-1-yl)phenyl) acrylamide] | % inhibition of scanMAX Kinase profiling ([8]; EGFR(L858R.T790M)): 97%; % inhibition of scanMAX Kinase profiling ([8]; EGFR(L861q)): 100%; % inhibition of scanMAX Kinase profiling ([8]; EGFR(S752-I759del)): 99%; % inhibition of scanMAX Kinase profiling ([8]; EGFR(T790M)): 100%; % inhibition of scanMAX Kinase profiling ([8]; ERBB2): 100%; % inhibition of scanMAX Kinase profiling ([8]; ERBB4): 100%
3 | < 0.05 | 23 | < 0.05 | A (GI50 < 50 nM) | < 0.05 | 4 | 0.5 to 5 | < 0.05 | < 0.05 | 0.05 to 0.5 | < 0.05 | < 0.05 |  |  |  |  |  |  | high suppression activity | 1 | C=CC(=O)Nc1cc(Nc2cc(N3OCC[C@@H]3c3cc(F)cc(F)c3)ncn2)c(OC)cc1N1CC[C@@H](N(C)C)C1 [Example 242, N-(5-((6-((R)-3-(3,5-difluorophenyl)isoxazolidine-2-yl)pyrimidine-4-yl)amino)-2-((R)-3-(dimethylamino)pyrolidine-1-yl)-4-methoxyphenyl) acrylamide] | 

Continued, molecule first:

Row | Structure (SMILES) | GI50 [1] [µM] | GI50 (PC9GR) [nM] | GI50 [2] [µM] | Ba/F3 (NPH) Activity [2] | GI50 [3] [µM] | GI50 (H1975) [nM] | GI50 (Ba/F3 cell naive) [µM] | GI50 (Ba/F3 cell EGFR L858R) [µM] | GI50 [4] [µM] | GI50 [5] [µM] | GI50 [6] [µM] | GI50 [7] [µM] | % inhibition of scanMAX Kinase profiling ([8]; EGFR(E746-A750del)) [%] | % inhibition of scanMAX Kinase profiling ([8]; EGFR(G719C)) [%] | % inhibition of scanMAX Kinase profiling ([8]; EGFR(G719S)) [%] | % inhibition of scanMAX Kinase profiling ([8]; EGFR(L747-E749del, A750P)) [%] | % inhibition of scanMAX Kinase profiling ([8]; EGFR(L747-T751del.Sins)) [%] | % inhibition of scanMAX Kinase profiling ([8]; EGFR(L858R)) [%] | suppression activity against the EGFR mutant and ERBB2 and ERBB4 [8] | GI50 (PC9) [nM] | also measured
4 | C=CC(=O)Nc1cc(Nc2cc(N3OCC[C@@H]3c3cc(F)cc(F)c3)ncn2)c(OC)cc1N1CCC(N2C[C@H]3C[C@@H]2CO3)CC1 [Example 238, N-(2-(4-((1R,4R)-2-oxa-5-azabicyclo[2.2.1]heptane-5-yl)piperidine-1-yl)-5-((6-((R)-3-(3,5-difluorophenyl)isoxazolidine-2-yl)pyrimidine-4-yl)amino)-4-methoxyphenyl) acrylamide] | < 0.05 | 4 | < 0.05 | A (GI50 < 50 nM) | < 0.05 | 1 | 0.5 to 5 | < 0.05 | < 0.05 | < 0.05 | < 0.05 | < 0.05 | 100 | 100 | 100 | 91 | 92 | 99 | high suppression activity | 1 | % inhibition of scanMAX Kinase profiling ([8]; EGFR(L858R.T790M)): 98%; % inhibition of scanMAX Kinase profiling ([8]; EGFR(L861q)): 98%; % inhibition of scanMAX Kinase profiling ([8]; EGFR(S752-I759del)): 91%; % inhibition of scanMAX Kinase profiling ([8]; EGFR(T790M)): 100%; % inhibition of scanMAX Kinase profiling ([8]; ERBB2): 100%; % inhibition of scanMAX Kinase profiling ([8]; ERBB4): 100%
5 | C=CC(=O)Nc1cc(Nc2cc(N3OCC[C@@H]3c3cc(F)cc(F)c3)ncn2)c(OC)cc1N1CCC(N2C[C@@H]3C[C@H]2CO3)CC1 [Example 239, N-(2-(4-((1S,4S)-2-oxa-5-azabicyclo[2.2.1]heptane-5-yl)piperidine-1-yl)-5-((6-((R)-3-(3,5-difluorophenyl)isoxazolidine-2-yl)pyrimidine-4-yl)amino)-4-methoxyphenyl) acrylamide] | < 0.05 | 5 | < 0.05 | A (GI50 < 50 nM) | < 0.05 | 1 | ≥ 5 | < 0.05 | < 0.05 | < 0.05 | < 0.05 | < 0.05 | 96 | 100 | 99 | 95 | 93 | 100 | high suppression activity | 1 | % inhibition of scanMAX Kinase profiling ([8]; EGFR(L858R.T790M)): 98%; % inhibition of scanMAX Kinase profiling ([8]; EGFR(L861q)): 97%; % inhibition of scanMAX Kinase profiling ([8]; EGFR(S752-I759del)): 82%; % inhibition of scanMAX Kinase profiling ([8]; EGFR(T790M)): 100%; % inhibition of scanMAX Kinase profiling ([8]; ERBB2): 100%; % inhibition of scanMAX Kinase profiling ([8]; ERBB4): 100%
